In experiment [1] the target is Serine/threonine-protein kinase Nek5 (Homo sapiens) (UniProt Q6P3R8). The experiment can be described thus: Inhibition of NEK5 (unknown origin) assessed as remaining activity at 1 uM by Kinome scan method relative to control.
Experiment [2] has as its target Tyrosine-protein kinase BTK (Homo sapiens) (UniProt Q06187). The experiment can be described thus: Inhibition of human BTK assessed as residual activity at 1 uM using PolyEY as substrate in presence of 33P-ATP by ProQinase assay relative to control.
The target in experiment [3] is T1, Serine/threonine-protein kinase Chk1 (Homo sapiens) (UniProt O14757).
T1 sequence (whole entry): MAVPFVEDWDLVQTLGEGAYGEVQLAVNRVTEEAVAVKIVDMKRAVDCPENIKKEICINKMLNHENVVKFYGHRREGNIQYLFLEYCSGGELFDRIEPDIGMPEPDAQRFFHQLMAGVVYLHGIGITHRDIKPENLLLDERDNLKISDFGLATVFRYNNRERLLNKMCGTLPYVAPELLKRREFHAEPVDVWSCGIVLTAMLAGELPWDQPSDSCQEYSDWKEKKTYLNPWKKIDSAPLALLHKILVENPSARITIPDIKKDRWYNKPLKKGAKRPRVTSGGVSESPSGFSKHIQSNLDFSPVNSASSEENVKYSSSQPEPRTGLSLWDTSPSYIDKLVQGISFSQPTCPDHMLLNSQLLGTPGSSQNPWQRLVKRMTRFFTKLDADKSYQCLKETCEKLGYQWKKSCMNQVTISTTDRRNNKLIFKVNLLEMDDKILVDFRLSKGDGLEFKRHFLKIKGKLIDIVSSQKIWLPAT
The experiment in a line: Inhibition of human CHK1 assessed as residual activity at 1 uM using RBER-CHKtide as substrate in presence of 33P-ATP by ProQinase assay relative to control.

The target in experiment [4] is Dual specificity protein kinase CLK3 (Homo sapiens) (UniProt P49761). The experiment in a line: Inhibition of human CLK3 assessed as residual activity at 1 uM using RB-S6P as substrate in presence of 33P-ATP by ProQinase assay relative to control.
Experiment [5] deals with T2, Myotonin-protein kinase (Homo sapiens) (UniProt Q09013).
T2 sequence (whole entry): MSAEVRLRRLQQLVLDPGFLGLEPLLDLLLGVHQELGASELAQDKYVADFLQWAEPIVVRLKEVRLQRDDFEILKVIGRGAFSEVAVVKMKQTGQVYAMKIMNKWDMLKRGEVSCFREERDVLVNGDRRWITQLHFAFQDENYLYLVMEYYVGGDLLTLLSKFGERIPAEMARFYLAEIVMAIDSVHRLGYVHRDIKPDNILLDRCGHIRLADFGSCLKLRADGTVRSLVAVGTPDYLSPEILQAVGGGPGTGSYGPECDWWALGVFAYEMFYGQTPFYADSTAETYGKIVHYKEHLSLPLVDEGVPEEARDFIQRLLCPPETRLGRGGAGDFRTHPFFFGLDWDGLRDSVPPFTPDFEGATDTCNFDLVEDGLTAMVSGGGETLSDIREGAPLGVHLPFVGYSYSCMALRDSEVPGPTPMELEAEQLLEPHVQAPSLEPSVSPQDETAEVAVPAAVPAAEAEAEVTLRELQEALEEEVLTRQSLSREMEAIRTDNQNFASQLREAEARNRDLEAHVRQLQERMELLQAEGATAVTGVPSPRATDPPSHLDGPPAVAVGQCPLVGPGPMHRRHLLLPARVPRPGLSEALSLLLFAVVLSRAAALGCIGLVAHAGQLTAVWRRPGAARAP
The experiment in a line: Inhibition of human DMPK assessed as residual activity at 1 uM using RBER-CHKtide as substrate in presence of 33P-ATP by ProQinase assay relative to control.

For experiment [6], the target named is T3, Ephrin type-B receptor 4 (Homo sapiens) (UniProt P54760).
T3 sequence (whole entry): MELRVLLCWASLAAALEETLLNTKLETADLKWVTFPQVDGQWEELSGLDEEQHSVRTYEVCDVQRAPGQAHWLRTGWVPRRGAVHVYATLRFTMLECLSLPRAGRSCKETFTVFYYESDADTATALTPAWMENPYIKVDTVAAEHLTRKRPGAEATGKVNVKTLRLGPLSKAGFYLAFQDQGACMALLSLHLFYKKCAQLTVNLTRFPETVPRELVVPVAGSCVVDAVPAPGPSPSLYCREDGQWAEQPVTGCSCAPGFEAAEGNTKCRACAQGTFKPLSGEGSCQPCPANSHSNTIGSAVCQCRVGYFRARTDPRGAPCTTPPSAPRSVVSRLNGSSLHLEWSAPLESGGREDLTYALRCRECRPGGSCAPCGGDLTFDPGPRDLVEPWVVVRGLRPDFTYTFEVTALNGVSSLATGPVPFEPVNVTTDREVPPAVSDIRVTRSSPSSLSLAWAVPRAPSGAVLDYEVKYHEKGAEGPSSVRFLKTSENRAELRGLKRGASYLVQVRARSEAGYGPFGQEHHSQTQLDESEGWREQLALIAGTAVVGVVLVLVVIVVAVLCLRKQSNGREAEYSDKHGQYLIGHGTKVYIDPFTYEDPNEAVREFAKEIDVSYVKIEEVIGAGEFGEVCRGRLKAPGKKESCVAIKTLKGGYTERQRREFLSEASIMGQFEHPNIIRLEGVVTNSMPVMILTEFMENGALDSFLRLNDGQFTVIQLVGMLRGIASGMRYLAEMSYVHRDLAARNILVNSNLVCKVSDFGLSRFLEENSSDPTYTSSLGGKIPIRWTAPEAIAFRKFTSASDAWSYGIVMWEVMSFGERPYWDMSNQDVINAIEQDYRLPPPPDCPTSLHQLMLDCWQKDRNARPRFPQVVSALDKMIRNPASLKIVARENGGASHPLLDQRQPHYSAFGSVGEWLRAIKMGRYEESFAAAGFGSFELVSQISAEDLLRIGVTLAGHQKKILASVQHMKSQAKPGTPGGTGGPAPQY
The experiment in a line: Inhibition of human EPHB4 assessed as residual activity at 1 uM using polyEY as substrate in presence of 33P-ATP by ProQinase assay relative to control.

For experiment [7], the target named is MAP kinase-interacting serine/threonine-protein kinase 2 (Homo sapiens) (UniProt Q9HBH9). The experiment can be described thus: Inhibition of human MKNK2 assessed as residual activity at 1 uM using RB-S6P as substrate in presence of 33P-ATP by ProQinase assay relative to control.
Experiment [8] has as its system Platelet-derived growth factor receptor alpha (Homo sapiens), P16234 [T674I]. The experiment in a line: Inhibition of human PDGFRalpha T674I mutant assessed as residual activity at 1 uM using Poly(Ala,Glu,Lys,Tyr)6:2:5:1 as substrate in presence of 33P-ATP by ProQinase assay relative to control.
Experiment [9] has as its target Proto-oncogene tyrosine-protein kinase Src (Homo sapiens) (UniProt P12931). The experiment can be described thus: Inhibition of human GST/His-tagged SRC assessed as residual activity at 1 uM using PolyEY as substrate in presence of 33P-ATP by ProQinase assay relative to control.
Experiment [10] can be described thus: Anti-inflammatory activity against human derived medium respond PBMC cells assessed as inhibition in stimulated IP-10 chemokine release incubated for 2 hrs in the presence of LPS/SEB/aCD28 by Luminex based sandwich immunoassay. In kind it is functional, cell-based.

Sequence of Tyrosine-protein kinase BTK (Homo sapiens) (Q06187 whole entry): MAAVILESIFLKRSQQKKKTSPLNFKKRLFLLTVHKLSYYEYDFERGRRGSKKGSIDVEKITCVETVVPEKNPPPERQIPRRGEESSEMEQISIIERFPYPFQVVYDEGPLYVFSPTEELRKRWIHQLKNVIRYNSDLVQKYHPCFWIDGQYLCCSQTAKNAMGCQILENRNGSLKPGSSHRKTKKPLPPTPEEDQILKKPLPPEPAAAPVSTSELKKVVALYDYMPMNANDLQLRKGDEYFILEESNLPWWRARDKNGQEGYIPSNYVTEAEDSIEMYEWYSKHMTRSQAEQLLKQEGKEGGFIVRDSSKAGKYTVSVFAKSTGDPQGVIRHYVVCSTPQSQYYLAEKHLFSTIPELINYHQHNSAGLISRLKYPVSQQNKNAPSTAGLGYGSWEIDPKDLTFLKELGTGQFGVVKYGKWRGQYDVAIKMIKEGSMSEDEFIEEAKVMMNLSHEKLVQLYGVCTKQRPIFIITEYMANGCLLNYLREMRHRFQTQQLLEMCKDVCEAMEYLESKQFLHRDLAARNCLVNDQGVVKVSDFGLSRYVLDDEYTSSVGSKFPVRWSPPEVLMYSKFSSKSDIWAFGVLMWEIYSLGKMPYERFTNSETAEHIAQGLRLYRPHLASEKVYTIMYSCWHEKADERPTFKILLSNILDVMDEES
Sequence of Proto-oncogene tyrosine-protein kinase Src (Homo sapiens) (P12931 2-536 limits assumed): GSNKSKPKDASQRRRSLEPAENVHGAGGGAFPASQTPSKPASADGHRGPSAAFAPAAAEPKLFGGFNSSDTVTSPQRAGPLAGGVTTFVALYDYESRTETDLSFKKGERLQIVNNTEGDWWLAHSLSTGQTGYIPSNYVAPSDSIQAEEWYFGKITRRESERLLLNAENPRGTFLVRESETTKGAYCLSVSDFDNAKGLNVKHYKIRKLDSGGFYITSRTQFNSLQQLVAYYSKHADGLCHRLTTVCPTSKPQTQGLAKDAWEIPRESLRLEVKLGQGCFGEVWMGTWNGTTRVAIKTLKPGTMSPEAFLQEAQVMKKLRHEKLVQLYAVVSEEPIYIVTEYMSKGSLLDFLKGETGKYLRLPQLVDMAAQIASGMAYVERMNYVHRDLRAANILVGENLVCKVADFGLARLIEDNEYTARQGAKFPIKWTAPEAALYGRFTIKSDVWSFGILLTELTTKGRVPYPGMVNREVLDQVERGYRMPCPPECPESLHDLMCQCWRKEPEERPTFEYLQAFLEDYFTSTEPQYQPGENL
Sequence of MAP kinase-interacting serine/threonine-protein kinase 2 (Homo sapiens) (Q9HBH9 whole entry, looked up): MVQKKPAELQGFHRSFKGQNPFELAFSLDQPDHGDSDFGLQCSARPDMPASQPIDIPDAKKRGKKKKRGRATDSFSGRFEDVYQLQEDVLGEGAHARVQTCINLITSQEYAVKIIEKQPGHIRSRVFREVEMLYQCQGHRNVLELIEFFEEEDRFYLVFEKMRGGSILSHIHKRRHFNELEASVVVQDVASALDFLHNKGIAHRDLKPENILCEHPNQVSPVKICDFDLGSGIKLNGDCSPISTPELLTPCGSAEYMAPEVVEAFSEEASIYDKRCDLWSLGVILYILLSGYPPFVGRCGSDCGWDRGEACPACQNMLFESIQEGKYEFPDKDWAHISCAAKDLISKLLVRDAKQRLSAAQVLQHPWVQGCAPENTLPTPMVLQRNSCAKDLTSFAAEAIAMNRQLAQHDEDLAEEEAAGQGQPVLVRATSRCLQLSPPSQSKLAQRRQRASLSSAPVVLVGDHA
Sequence of Serine/threonine-protein kinase Nek5 (Homo sapiens) (Q6P3R8 whole entry): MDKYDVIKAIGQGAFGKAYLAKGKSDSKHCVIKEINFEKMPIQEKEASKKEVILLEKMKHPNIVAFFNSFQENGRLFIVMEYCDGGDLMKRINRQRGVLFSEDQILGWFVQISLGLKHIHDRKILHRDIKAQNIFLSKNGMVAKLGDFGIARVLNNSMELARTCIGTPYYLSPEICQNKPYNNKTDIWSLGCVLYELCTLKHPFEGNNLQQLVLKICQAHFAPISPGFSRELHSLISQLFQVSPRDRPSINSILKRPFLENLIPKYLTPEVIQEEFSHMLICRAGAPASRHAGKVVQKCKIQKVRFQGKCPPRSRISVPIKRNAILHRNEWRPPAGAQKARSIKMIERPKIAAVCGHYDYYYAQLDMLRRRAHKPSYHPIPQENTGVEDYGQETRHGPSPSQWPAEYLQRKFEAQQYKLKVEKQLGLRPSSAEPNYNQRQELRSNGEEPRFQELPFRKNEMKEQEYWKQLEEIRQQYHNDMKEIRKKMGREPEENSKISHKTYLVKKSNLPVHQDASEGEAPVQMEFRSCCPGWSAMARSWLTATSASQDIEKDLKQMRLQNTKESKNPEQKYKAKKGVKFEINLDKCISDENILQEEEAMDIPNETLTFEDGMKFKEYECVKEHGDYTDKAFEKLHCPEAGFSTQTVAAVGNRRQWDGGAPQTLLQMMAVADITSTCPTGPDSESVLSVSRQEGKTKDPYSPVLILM
Sequence of Platelet-derived growth factor receptor alpha (Homo sapiens), P16234 [T674I] (P16234 whole entry T674I): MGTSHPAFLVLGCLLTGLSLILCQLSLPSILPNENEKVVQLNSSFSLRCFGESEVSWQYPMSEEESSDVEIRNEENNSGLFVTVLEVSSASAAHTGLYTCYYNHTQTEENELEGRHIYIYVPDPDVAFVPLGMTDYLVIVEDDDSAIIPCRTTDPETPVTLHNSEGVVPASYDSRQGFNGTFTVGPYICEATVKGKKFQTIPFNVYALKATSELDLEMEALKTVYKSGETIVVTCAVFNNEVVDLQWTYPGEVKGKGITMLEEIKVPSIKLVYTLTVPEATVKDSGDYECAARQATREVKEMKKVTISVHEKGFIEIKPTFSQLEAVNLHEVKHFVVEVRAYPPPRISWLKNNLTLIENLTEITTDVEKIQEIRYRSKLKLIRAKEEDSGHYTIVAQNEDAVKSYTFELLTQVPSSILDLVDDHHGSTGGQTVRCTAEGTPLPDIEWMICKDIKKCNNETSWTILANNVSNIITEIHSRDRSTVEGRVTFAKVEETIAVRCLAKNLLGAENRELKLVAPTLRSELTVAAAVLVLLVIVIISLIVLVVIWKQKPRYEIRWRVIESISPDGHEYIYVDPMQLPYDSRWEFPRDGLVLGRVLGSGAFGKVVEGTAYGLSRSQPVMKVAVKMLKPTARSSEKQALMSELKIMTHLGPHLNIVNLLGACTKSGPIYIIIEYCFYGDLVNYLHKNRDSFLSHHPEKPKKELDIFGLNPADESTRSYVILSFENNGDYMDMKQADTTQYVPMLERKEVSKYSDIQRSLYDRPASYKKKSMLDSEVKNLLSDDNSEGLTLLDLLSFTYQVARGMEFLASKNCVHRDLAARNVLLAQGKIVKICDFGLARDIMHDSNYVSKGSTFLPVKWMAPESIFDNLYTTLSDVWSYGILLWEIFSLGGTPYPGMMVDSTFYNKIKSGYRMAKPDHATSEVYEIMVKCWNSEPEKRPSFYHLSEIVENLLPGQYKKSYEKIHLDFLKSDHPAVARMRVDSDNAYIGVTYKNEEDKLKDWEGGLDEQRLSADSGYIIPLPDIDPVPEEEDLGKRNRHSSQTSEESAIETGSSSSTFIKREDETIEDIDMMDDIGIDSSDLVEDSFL
Sequence of Dual specificity protein kinase CLK3 (Homo sapiens) (P49761 whole entry, looked up): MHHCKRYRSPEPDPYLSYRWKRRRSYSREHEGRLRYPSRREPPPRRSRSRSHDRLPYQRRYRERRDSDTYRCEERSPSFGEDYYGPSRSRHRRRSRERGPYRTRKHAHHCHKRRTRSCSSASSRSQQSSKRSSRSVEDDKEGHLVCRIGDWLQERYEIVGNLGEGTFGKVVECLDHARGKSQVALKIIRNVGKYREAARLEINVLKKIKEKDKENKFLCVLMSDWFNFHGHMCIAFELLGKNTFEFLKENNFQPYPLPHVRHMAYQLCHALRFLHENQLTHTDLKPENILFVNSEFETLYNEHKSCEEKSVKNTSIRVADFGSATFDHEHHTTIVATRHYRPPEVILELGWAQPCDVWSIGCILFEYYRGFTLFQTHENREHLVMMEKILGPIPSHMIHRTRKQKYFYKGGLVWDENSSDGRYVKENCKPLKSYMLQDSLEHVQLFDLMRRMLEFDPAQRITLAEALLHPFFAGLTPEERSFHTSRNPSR

In the case of `O=C1c2ccc(Nc3ccc(F)cc3F)cc2CCc2ccc(OC[C@H](O)CO)cc21` [Skepinone-L], the Activity stood at 100% in experiment [1]; 100% in experiment [2]; 94% in experiment [3]; 88% in [4]; 99% in experiment [5]; 128% in experiment [6]. The Activity amounted to 96% in experiment [7], 97% in experiment [8] and 119% in [9]. In experiment [10], the IC50 (commonly the concentration that inhibits the measured activity by half) is 5.9 µM.
